Here are results for five molecules from ChEMBL document CHEMBL5055670, “Sublyratins A-O, Labdane-Type Diterpenoids from Croton sublyratus” (J Nat Prod, 2021).

Structures can show the parent of a compound that is named as a salt.

Experiment [1] concerns HL-60. The experiment is described as follows: Cytotoxicity against human HL-60 cells assessed as cell growth inhibition incubated for 72 hrs by CCK8 assay. As to conditions: HL-60, 72 h. The format is functional, cell-based. (In general: Tetrazolium dyes change colour on reduction, which living cells bring about.)
In experiment [2] the test system is A549. Description: Cytotoxicity against human A549 cells assessed as cell growth inhibition by SRB assay. The format is functional, cell-based. For orientation: Sulforhodamine B stains cellular protein and so reports cell mass.

In the case of `C=C[C@@](C)(O)[C@@H]1C[C@H]2C(=CC[C@H]3C(C)(C)CCC[C@]23C)C(=O)O1`, the IC50 was 1500 nM in experiment [1] and over 10000 nM in experiment [2].
The corresponding values for `C=C[C@](C)(O)[C@H]1C[C@H]2C(=CC[C@H]3C(C)(C)CCC[C@]23C)C(=O)O1` are 2600 nM and over 10000 nM.
For `C=C[C@@](C)(O)[C@H]1C[C@H]2C(=CC[C@H]3C(C)(C)CCC[C@]23C)C(=O)O1`, the IC50 in experiment [1] is 2800 nM; in experiment [2], over 10000 nM.
Take `COc1cccc2c1C(=O)c1c(O)c3c(c(O)c1C2=O)C[C@@](O)(C(=O)CO)C[C@@H]3O[C@H]1C[C@H](N)[C@H](O)[C@H](C)O1` [DOXORUBICIN HYDROCHLORIDE]: the IC50 in experiment [2] was 850 nM.
On to `C=C[C@](C)(O)[C@@H]1C[C@H]2C(=CC[C@H]3C(C)(C)CCC[C@]23C)C(=O)O1`, for which the IC50 in experiment [1] was 2400 nM; in experiment [2], over 10000 nM.

The IC50 is the concentration needed to halve the response being measured.
